Measured values: patent US20220273659A1, “HETEROCYCLIC COMPOUNDS AS KINASE INHIBITORS” (NUVATION BIO INC., priority 2019, published 2022)
Like-named read-outs stand apart in the source and are kept apart here.

How the values were obtained:
[1] = system: MCF-7-PR (palbociclib-resistant MCF-7) cells; test: Cell viability in palbociclib-resistant cell line; format: cell-based; conditions: for IC50: Homo sapiens, MCF7, Table 5, palbociclib-resistant cell line maintained at about 850 nM palbociclib
Method: Cells were treated with test compounds at 7 to 9 concentrations within a desired concentration range (e.g. 1.1 nM-10 μM) on day 2 by series diluting the test compound stock solution (10 mM in DMSO) with culture medium. Treatment duration was 24 Hr for BT-549 cells and 144 Hr (with a medium change at 72 Hr) for MCF-7 and DU4475 cells. Cell viability was assessed by Cell Titer-Glo® as recommended by Promega (Cat. No.: G7572), or by resazurin assay (Sigma Aldrich, Cat. No.: R7017) post treatment.
Cell viability data were plotted using GraphPad Prism (GraphPad Software, Inc., San Diego, Calif.). In addition, a nonlinear regression model with a sigmoidal dose response and variable slope within GraphPad Prism was used to calculate the IC50 value of individual test compounds.
The effects of test compounds in a palbociclib-resistant cell line and a parental, non-resistant cell line were compared. The palbociclib-resistant cell line (“MCF-7-PR”) was derived from the parental, non-resistant cell line (MCF-7 breast adenocarcinoma cells) by culture of cells over a period of three months in increasing concentrations of palbociclib, starting from about 350 nM and ending at about 850 nM, the final concentration at which they were then maintained in culture. The MCF-7-PR cells were checked using a cell viability assay to confirm that they had at least 5-fold resistance to palbociclib compared to parental MCF-7 cells, as measured by an increase in the cell viability IC50 values. Assessment of cell viability following treatment with palbociclib or test compounds was performed according to the method described above for MCF-7 cells.

[2] = target: T1, CDK4 (Homo sapiens, UniProt P11802); test: In vitro kinase inhibition IC50, luminescence (ADP Glo), retinoblastoma substrate; format: biochemical; conditions: read-out: CDK4/D1 IC50
T1 construct: purchased Invitrogen PR8064A
T1 sequence (P11802 whole entry): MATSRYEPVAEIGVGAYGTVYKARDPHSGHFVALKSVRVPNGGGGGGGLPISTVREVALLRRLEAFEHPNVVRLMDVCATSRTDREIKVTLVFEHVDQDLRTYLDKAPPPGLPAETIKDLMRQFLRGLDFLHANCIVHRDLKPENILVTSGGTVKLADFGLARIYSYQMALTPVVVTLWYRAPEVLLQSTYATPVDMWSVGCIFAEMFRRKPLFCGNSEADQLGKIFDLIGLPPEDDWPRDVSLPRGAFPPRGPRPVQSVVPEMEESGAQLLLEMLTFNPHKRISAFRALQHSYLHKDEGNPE
T1 sequence (P24385 whole entry partner): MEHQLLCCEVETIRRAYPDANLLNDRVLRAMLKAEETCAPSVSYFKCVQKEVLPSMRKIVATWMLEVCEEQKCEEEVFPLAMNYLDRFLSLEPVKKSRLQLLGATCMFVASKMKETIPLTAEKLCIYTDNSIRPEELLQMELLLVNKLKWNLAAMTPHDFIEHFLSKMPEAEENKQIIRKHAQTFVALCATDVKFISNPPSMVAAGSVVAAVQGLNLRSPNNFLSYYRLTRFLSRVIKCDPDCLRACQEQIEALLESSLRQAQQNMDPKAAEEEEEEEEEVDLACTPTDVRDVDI
Outline: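 CDK4 enzyme (5 nM, Invitrogen) was combined with test compound and a mix of retinoblastoma substrate (1 μM) plus ATP (25 μM) in kinase buffer, 30 μL/well in 96-well half area white plates. After 2H at room temperature, ADP Glo reagent stopped the reaction for 45 min, then detection reagent was added and luminescence was read.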

[3] = target: T2, CDK6 (Homo sapiens, UniProt Q00534); test: as above; format: biochemical; conditions: read-out: CDK6/D1 IC50
T2 construct: purchased Invitrogen PR8422B
T2 sequence (Q00534 whole entry): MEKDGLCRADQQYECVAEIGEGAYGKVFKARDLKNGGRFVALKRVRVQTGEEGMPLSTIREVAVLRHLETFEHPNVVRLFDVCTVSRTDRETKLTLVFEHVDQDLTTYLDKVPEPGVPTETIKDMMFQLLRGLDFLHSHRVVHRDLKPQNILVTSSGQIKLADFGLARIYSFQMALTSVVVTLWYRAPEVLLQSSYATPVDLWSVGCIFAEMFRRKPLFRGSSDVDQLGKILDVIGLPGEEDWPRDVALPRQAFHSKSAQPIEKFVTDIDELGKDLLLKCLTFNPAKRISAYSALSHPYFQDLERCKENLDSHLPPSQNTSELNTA
T2 sequence (P24385 whole entry partner): as the sequence (P24385 whole entry partner) above
Outline: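 Recombinant CDK6 (5 nM) with retinoblastoma substrate (1 μM) and 25 μM ATP, compound at final 0.1–200 nM, incubated 2 h at room temperature. ADP formed detected by ADP-Glo luminescence. IC50 from four-parameter logistic fit of percent inhibition.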

[4] = target: T3, CDK1 (cyclin B) (Homo sapiens, UniProt P06493); test: Z'-LYTE kinase assay; format: biochemical
T3 construct: purchased Invitrogen Life Technologies (assay service)
T3 sequence (P06493 whole entry): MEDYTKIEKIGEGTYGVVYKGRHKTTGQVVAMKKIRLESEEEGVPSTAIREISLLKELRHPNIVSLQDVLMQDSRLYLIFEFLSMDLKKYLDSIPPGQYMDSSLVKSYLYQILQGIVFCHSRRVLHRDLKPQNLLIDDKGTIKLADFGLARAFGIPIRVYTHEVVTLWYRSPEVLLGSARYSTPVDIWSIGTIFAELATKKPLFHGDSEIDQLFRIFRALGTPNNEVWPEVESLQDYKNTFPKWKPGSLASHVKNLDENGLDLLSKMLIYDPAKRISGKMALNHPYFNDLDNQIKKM
T3 sequence (P14635 whole entry partner): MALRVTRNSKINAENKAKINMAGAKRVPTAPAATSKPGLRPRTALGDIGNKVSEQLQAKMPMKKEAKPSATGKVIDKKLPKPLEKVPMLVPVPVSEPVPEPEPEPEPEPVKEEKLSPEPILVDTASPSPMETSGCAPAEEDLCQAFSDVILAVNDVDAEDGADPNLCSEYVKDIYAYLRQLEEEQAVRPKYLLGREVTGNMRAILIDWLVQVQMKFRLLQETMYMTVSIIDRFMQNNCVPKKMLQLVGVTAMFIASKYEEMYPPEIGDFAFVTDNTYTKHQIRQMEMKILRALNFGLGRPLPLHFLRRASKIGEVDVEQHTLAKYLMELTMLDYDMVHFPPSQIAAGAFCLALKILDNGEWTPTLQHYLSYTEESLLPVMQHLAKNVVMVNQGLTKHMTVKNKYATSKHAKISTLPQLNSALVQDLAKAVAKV
Method: The plates were shaken for 30 seconds, and incubated for 60 minutes at room temperature. […] The plates were read on fluorescence plate reader with Dual emission at 445 nm and 520 nm.
The following equations were used for Z′-LYTE™ Screening Assay Data Analysis.

[5] = target: T4, CDK2 (cyclin A) (Homo sapiens, UniProt P24941); test: Z'-LYTE kinase assay; format: biochemical
T4 construct: purchased Invitrogen Life Technologies (assay service)
Outline: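 FRET-based Z′-LYTE read-out using 1.22–10.3 ng CDK2/cyclin A with Ser/Thr 12 peptide (2 μM in the 2× mix) and ATP (31 μM as the 4× solution), in HEPES pH 7.5, MgCl2, EGTA and BRIJ-35, for 60 min at room temperature. After 1 h of development, the 445/520 nm emission was read, and percent inhibition was fitted to a four-parameter logistic curve for IC50.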

[6] = target: T5, FMS kinase (Homo sapiens, UniProt P07333); test: LanthaScreen Eu Kinase Binding Assay (ATP, fluorescent-PolyGT substrate); format: biochemical
T5 construct: purchased Invitrogen (Life Technologies)
T5 sequence (P07333 20-972): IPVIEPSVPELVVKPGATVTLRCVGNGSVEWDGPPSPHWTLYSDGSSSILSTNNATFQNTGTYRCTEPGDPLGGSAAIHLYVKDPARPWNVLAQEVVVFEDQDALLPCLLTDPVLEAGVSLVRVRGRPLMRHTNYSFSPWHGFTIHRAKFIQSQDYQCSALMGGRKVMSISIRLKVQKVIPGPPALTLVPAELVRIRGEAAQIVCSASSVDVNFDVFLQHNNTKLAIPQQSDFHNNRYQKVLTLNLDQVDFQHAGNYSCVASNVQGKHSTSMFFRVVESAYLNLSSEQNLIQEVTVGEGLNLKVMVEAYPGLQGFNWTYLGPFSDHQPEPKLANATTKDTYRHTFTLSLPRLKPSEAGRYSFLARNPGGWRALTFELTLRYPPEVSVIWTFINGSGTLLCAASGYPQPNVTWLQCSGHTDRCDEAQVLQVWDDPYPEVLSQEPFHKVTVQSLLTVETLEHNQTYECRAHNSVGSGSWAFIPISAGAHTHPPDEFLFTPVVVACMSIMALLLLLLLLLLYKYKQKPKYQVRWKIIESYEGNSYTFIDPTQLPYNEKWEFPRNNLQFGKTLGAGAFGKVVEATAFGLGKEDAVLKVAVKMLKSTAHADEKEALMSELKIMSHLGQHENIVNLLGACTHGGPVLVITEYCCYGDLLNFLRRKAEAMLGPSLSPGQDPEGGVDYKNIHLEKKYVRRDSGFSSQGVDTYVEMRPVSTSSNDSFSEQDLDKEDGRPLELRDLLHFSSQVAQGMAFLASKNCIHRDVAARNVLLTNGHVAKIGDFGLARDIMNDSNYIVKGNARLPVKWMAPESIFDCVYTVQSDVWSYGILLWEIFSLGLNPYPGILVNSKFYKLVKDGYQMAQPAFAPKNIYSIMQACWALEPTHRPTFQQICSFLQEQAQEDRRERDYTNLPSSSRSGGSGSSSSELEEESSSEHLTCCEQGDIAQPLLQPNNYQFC
Outline: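 Kinase (1.25 nM) preincubated 10 min with 3-fold compound dilutions, then ATP 10 μM and fluorescent PolyGT substrate 200 nM added for 1 h in the dark at room temperature. Stopped with Tb-antibody (4 nM) and EDTA 20 mM; TR-FRET at 340 nm excitation, 495/520 nm emission; IC50 from four-parameter fit.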

[7] = system: DU4475 breast carcinoma cells; test: Cancer cell proliferation assay, single agent (cell viability); format: cell-based; conditions: Homo sapiens, DU-4475; Table 4; Rb negative; treatment 144 Hr with medium change at 72 Hr; Cell Titer-Glo or resazurin
Outline: (§1)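 Cells seeded day 1, then exposed on day 2 to 7–9 compound concentrations (e.g. 1.1 nM–10 μM); BT-549 for 24 h, MCF-7 and DU4475 for 144 h with medium change at 72 h. Viability by CellTiter-Glo or resazurin; IC50 from variable-slope sigmoidal fit.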

[8] = system: MCF-7 breast adenocarcinoma cells; test: as above; format: cell-based; conditions: Homo sapiens
Outline: as §1

[9] = target: T6, PI3Kδ kinase (Homo sapiens, UniProt O00329); test: PI3Kδ kinase assay (ADP-Glo, Reaction Biology); format: biochemical
T6 construct: purchased Reaction Biology Corporation (assay service)
T6 sequence (O00329 whole entry): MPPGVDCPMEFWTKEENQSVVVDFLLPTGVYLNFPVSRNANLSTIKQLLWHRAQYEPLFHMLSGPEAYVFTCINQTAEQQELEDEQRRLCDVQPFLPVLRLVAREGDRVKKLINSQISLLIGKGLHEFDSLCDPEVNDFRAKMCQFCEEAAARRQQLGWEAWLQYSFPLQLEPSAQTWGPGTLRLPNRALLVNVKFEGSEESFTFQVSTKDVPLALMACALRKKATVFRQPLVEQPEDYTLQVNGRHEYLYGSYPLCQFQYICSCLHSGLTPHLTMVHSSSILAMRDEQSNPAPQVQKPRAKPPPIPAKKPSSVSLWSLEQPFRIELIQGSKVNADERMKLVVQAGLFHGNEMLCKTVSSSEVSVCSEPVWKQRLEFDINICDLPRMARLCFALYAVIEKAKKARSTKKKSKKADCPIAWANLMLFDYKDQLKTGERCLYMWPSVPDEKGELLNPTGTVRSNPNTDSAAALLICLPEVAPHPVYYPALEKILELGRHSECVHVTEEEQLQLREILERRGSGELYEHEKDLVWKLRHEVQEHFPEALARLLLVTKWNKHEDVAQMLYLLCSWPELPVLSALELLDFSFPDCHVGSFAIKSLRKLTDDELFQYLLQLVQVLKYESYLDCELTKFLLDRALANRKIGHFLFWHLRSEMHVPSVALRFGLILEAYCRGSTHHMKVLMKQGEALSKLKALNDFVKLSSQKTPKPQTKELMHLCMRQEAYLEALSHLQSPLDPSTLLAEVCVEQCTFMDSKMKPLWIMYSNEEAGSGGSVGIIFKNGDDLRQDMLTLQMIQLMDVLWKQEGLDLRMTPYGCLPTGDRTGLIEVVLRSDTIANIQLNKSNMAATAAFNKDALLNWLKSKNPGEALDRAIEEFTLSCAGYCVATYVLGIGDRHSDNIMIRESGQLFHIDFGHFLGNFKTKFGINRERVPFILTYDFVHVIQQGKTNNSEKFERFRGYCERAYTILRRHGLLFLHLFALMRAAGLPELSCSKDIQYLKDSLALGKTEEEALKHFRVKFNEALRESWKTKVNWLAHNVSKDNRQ
T6 sequence (P27986 whole entry partner): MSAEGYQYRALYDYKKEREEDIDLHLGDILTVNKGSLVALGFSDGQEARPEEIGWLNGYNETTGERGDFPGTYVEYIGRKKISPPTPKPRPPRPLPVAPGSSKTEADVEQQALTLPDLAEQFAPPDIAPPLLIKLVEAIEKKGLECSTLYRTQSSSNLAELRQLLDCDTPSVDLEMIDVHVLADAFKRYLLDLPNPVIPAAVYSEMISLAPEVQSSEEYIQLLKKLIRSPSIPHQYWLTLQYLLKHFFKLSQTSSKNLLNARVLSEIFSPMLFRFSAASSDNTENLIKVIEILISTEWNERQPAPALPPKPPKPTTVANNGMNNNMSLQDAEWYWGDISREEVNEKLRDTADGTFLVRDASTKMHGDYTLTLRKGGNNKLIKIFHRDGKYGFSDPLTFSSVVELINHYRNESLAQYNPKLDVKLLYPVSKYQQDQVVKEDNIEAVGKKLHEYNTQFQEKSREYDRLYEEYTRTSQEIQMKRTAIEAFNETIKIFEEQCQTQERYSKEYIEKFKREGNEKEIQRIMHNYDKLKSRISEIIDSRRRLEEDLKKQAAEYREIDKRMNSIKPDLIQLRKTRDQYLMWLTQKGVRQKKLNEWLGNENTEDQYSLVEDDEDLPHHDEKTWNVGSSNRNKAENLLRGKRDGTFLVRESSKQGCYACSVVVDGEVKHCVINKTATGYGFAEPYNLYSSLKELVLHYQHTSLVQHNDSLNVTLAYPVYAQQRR
Outline: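 Kinase in Tris-HCl 40 mM pH 7.5, MgCl2 20 mM, orthovanadate 3 mM, DTT 2 mM, 0.05% CHAPS, 1% DMSO, preincubated 10 min at room temperature with compound (about 0.5 nM–100 μM). ATP started a 30-min reaction at 30 °C. ADP-Glo luminescence converted to μM ADP via standard curve; IC50 from nonlinear regression.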

[10] = system: Rb Ser780 phosphorylation in MCF-7 cells; test: Determination of pRb levels (Ser780 phosphorylation, ELISA); format: cell-based; conditions: Homo sapiens
Method: Hypo-phosphorylation of the retinoblastoma protein (Rb) by cyclin D:Cdk4/6 complexes results in active Rb, which is a clinically relevant biomarker associated with CDK4 or CDK6 inhibition. As a confirmatory measure of functional activity of CDK4/6, the Ser780 phosphorylation state of Rb was assessed. MCF-7 cells were plated at 2.5×10^5 to 3.0×10^6 cells/well in 6-well cell-culture plates and incubated at 37° C. for 24H in MEM medium supplemented with 10% FBS. Cells were treated for 24H with a medium containing test compound at various concentrations (e.g., 0.01, 0.1, […]) or with DMSO (≤1%) in duplicate. After incubation period, the media was removed, and cells were rinsed once with ice-cold PBS and lysed with 0.2 mL of Cell Lysis Buffer containing 1 mM PMSF and Protease Inhibitor. Protein concentration was estimated following Bradford method. The lysis and the Rb measurements were performed following the manufacturer's ELISA kit protocols and buffers (Cell Signaling Technology, Cat. No.: 13016C). Rb inhibition of test compounds was calculated as percentage of vehicle control. In some cases, a nonlinear regression model with a sigmoidal dose response and variable slope within GraphPad Prism was used to calculate the IC50 value of Rb inhibition for individual test compounds.

[11] = target: T7, CDK9 (cyclin K) (Homo sapiens, UniProt P50750); test: LanthaScreen Eu Kinase Binding Assay
T7 construct: purchased Invitrogen Life Technologies (assay service)
Method: 0.16 μL of 100×test compound in 100% DMSO (at specific solutions) were mixed with 3.84 μL of Kinase Buffer (50 mM HEPES pH 7.5, 0.01% BRIJ-35, 10 mM MgCl2, 1 mM EGTA), 8.0 μL of 2× Kinase (5 nM)/Antibody (Eu-anti-His, 2 nM) Mixture and 4.0 μL of 4×Tracer (Tracer 236, 100 nM). The plates were shaken for 30 seconds, and incubated for 60 minutes at room temperature. The plates were read on fluorescence plate reader with Dual emission at 615 nm and 665 nm.
The following equations were used for LanthaScreen Eu Kinase Binding Assay Data Analysis. Percent inhibition (100-% activity) was fitted to the “four-parameter logistic model” in XLfit for determination of IC50 values.

[12] = MCF7, Table 4, Rb positive, treatment 144 Hr with medium change at 72 Hr, Cell Titer-Glo or resazurin
[13] = MCF7, Table 5, parental, non-resistant cell line compared with MCF-7-PR

SMILES | resistance to palbociclib compared to parental MCF-7 cells (increase in cell viability IC50) ([1]; MCF-7-PR versus parental MCF-7) | IC50 [2] | IC50 [3] | IC50 [4] | IC50 [5] | IC50 [6] | IC50 [7] | IC50 [8, 12] | IC50 [8, 13] | IC50 [1] | IC50 [9] | inhibition at 0.01 µM ([10]; MCF7, 0.01 μM, 24H treatment, percentage of vehicle control) | inhibition at 0.1 µM ([10]; MCF7, 0.1 μM, 24H treatment, percentage of vehicle control) | inhibition at 1 µM ([10]; MCF7, 1 μM, 24H treatment, percentage of vehicle control) | IC50 ([4]; read-out: CDK1/B IC50) | IC50 ([10]; MCF7, 24H treatment, read-out: Inhibition of Rb phosphorylation IC50) | IC50 [11]
CC(=O)c1c(C)c2cnc(Nc3ccc(N4CCNCC4)cn3)nc2n(C2CCCC2)c1=O [palbociclib, reference compound] | at least 5 fold |  |  |  |  |  |  |  |  |  |  |  |  |  |  |  | 
CS(=O)(=O)N1CCC(Nc2ncc3cc(C#N)c(=O)n([C@H]4C[C@@H]5CC[C@H]4C5)c3n2)CC1 (racemic) [Compound No. 353, 8-((1S,2S,4R)-bicyclo[2.2.1]heptan-2-yl)-2-(1-(methylsulfonyl)piperidin-4-ylamino)-7-oxo-7,8-dihydropyrido[2,3-d]pyrimidine-6-carbonitrile] |  | 15 nM | 13 nM | > 2600 nM | 10 nM | 69 nM | 900 nM | 515 nM | 347 nM | 769 nM |  |  |  |  |  |  | 
N#Cc1cc2cnc(Nc3ccc(N4CCNCC4)c(C(F)(F)F)c3)nc2n(C2CCCC2)c1=O [Compound No. 33, 8-cyclopentyl-7-oxo-2-((4-(piperazin-1-yl)-3-(trifluoromethyl)phenyl)amino)-7,8-dihydropyrido[2,3-d]pyrimidine-6-carbonitrile] |  | > 200 nM | > 200 nM |  |  | 4.2 nM |  | 155 nM | 205 nM | 65 nM | 1660 nM |  |  |  |  |  | 
N#Cc1cc2cnc(Nc3ccc(N4CCNCC4)cc3)nc2n(C2CCCc3ccccc32)c1=O (stereo not drawn) [Compound No. 39, 7-oxo-2-((4-(piperazin-1-yl)phenyl)amino)-8-(1,2,3,4-tetrahydronaphthalen-1-yl)-7,8-dihydropyrido[2,3-d]pyrimidine-6-carbonitrile] |  | 2 nM | 1.5 nM |  |  | 7 nM |  | 2280 nM |  |  | 906 nM | -25% | 40% | 52% |  |  | 
N#Cc1cc2cnc(Nc3ccc(N4CCNCC4)c(Cl)c3)nc2n(C2CCCC2)c1=O [Compound No. 30, 2-((3-chloro-4-(piperazin-1-yl)phenyl)amino)-8-cyclopentyl-7-oxo-7,8-dihydropyrido[2,3-d]pyrimidine-6-carbonitrile] |  | 4.5 nM | 9.5 nM |  |  | 6 nM |  | 110 nM | 115 nM | 85 nM |  |  |  |  |  |  | 
CCOCCCn1c(=O)c(C#N)cc2cnc(Nc3ccc4c(c3)CCNC4)nc21 [Compound No. 343, 8-(3-ethoxypropyl)-7-oxo-2-((1,2,3,4-tetrahydroisoquinolin-6-yl)amino)-7,8-dihydropyrido[2,3-d]pyrimidine-6-carbonitrile] |  | > 200 nM | > 200 nM |  | > 3120 nM | 6.5 nM | 5720 nM | 1280 nM |  |  | 770 nM |  |  |  | > 5000 nM |  | 
N#Cc1cc2cnc(Nc3cnn(C4CCNCC4)c3)nc2n(C2CCCC2)c1=O [Compound No. 50, 8-cyclopentyl-7-oxo-2-((1-(piperidin-4-yl)-1H-pyrazol-4-yl)amino)-7,8-dihydropyrido [2,3-d] pyrimidine-6-carbonitrile] |  | 23 nM | 17 nM |  |  | 1 nM | 2440 nM | 395 nM | 664 nM | 1040 nM |  |  |  |  |  | 505 nM | 
N#Cc1cc2cnc(Nc3ccc4c(c3)CCN(CCN)C4)nc2n(C2CCCC2)c1=O [Compound No. 66, 2-((2-(2-aminoethyl)-1,2,3,4-tetrahydroisoquinolin-6-yl)amino)-8-cyclopentyl-7-oxo-7,8-dihydropyrido[2,3-d]pyrimidine-6-carbonitrile] |  | 7 nM | 6 nM |  | 426 nM |  | 975 nM | 568 nM |  |  |  |  |  |  | 1720 nM |  | 83 nM
